From US20260294922A1, “Inhibitors of JUN N-Terminal Kinases (JNK1, JNK2, and/or JNK3) and Mitogen-Activated Protein Kinases (MAPK8, MAPK9, and/or MAPK10) and Methods of Using Same” (Baylor College of Medicine, priority 2023, published 2026) come the findings set out here.

Converted amounts (≈) assume the structure as drawn. “Also recorded” adds a separate entry of the source.

The term half-life denotes the time in which the quantity being followed falls by half. Higher therefore signals slow loss. In general, solubility refers to the dissolved amount per volume that the medium holds. A higher solubility goes with much dissolved substance. What is called Kd is a measure of binding affinity in units of concentration. As a reminder, the IC50 is the concentration that inhibits the measured activity by half. The low end stands for inhibition by little substance, the high end for a need for much substance.

Data set [1] in a line: In vitro metabolism in human liver microsomes. To be noted: human, microsomes. How it is done:
(§1) The target product profile seeks to deliver JNK inhibitor as a once daily oral administration. To prioritize compounds for further development, in vitro metabolism of several CDD JNK inhibitors were determined to approximate the plasma half-life and the rate of metabolism of the compounds in vivo.
A general note: Liver microsomes are vesicles of endoplasmic reticulum, rich in cytochrome P450 enzymes.

Data set [2] in a line: Solubility.
Data set [3] has as its system 12Z endometriotic epithelial cells. Nature of the data set: IL-1β-stimulated pro-inflammatory gene expression (qPCR) in 12Z cells. The format is cell-based, human. Conditions: relative to bentamapimod. The text has this: These studies indicate that NanoBRET assays are an innovative technical platform to measure target engagement of CDD JNK inhibitors with the target JNK1, JNK2 or JNK3. As further evidence that JNK inhibitors address disease-relevant endpoints, biological responses of JNK inhibitors are provided herein, as measured in target tissue cellular models. 12Z immortalized endometriotic epithelial cells and patient-derived endometriotic stromal cells have been cultured with reference compound bentamapimod, CDD-2628, and CDD-2728. To exemplify the effects of CDD-2628 and CDD-2728 in the endometrial cell cultures, gene expression was measured using qPCR (expressed as fold-change relative to GAPDH, a housekeeping gene that is not affected by culture treatment effects) that reflect synthesis of inflammatory lipids (PTGS2), transformation of cells to a more migration and invasive potential (MMP-3) and chemoattractant cytokines to recruit pro-inflammatory immune cells (IL-6, IL-8).
In the culture systems employed in FIGS. 12A-12J, FIGS. 13A-13B, FIGS. 14A-14H, FIGS. 15A-15H, and FIGS. 16A-16F, the treatment of cells with IL-1β is used to mimic the peritoneal environment where IL-1β is most frequently measured at higher concentrations in patients with endometriosis (0.1 ng/mL-1 ng/mL) than in unaffected women (<0.01 ng/mL). The use of IL-1β to mimic the pro-inflammatory environment is a common method in cellular assays for endometriosis research. Although the concentrations of IL-1β in these cell cultures are higher than measured in peritoneal fluid, there are multiple other pro-inflammatory cytokines in peritoneal fluid that contribute to the pro-inflammatory environment.
Specifically, 12Z cells were plated at a density of 1×10^5 cells/well in a 12-well tissue culture plate, serum-starved overnight (17-18 h), pre-treated with vehicle (DMSO) or JNK inhibitor for 30 minutes, then stimulated with 10 ng/ml IL-1β in the presence or absence of the JNK inhibitors for 6 hours. After the 6-hour treatment, mRNA was extracted from the cells using the Qiagen RNEasy mini isolation kit and […] of mRNA was reverse transcribed into cDNA using the qScript cDNA Supermix (Quanta Biosciences). cDNA was amplified using SYBR Green Master Mix (Applied Biosystems) with quantitative Real Time PCR (BioRad CFX) using pre-designed and validated primers specific for genes encoding IL6, IL8, PTGS2/COX2, and MMP3 (BioRad). Relative quantification of these specific genes was calculated by the ΔΔCt method, normalizing their abundance relative to the internal housekeeping gene, GAPDH, followed by quantification relative to the vehicle-treated cells. Statistical analyses and visualizations were performed using a One Way ANOVA with a Tukey's multiple comparison post-hoc test on GraphPad Prism version 9.

In data set [4] the target is T1, JNK1 (Homo sapiens, UniProt P45983). Nature of the data set: JNK1 kinase (intrinsic ATPase, Kinase-Glo) assay. The class given is biochemical. The protocol: JNK1, JNK2, and JNK3 hydrolyze ATP to ADP without any peptide substrates. This allows a very robust and fast endpoint assay where the remaining concentration of ATP is measured (BMG ClarioStar Plus plate reader) using the Kinase-Glo Assay kit from Promega (V6711). A luminescence signal is measured, which is produced by the catalytic conversion of beetle luciferin to oxyluciferin by luciferase. Potential inhibition of luciferase (i.e., false negatives) is easily detected, because assays without kinase are always included, and less ATP than is present in this control reaction could also indicate an inhibition of luciferase, which can be excluded by a counter screen with only luciferase.
T1 sequence (P45983 whole entry): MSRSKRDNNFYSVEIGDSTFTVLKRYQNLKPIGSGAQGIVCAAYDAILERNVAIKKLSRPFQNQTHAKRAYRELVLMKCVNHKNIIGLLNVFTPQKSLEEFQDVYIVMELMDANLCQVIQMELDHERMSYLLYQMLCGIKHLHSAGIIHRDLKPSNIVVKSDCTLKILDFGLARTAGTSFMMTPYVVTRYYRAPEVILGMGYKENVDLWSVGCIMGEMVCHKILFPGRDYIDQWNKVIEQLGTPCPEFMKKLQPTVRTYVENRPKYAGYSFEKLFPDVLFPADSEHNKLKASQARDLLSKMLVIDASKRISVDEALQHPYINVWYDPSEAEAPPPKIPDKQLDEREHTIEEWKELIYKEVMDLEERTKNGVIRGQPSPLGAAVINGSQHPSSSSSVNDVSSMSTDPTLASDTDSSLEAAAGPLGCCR
To mitigate violation of the linear initial velocity principle, which is a problem in end-point assays when doing dose-responses, the enzyme concentration was carefully optimized, in a total assay volume of 25 μL. […] The kinase reaction was done for 30 or 60 min at 30° C., and detection of leftover ATP was measured according to Promega's protocol. […] Fractional activities were obtained from normalized data. Non-linear regression (GraphPad Prism7) and a modified Morrison equation for tight binding was used to determine apparent Ki values for inhibitors, assuming no particular mode of inhibition. An orthogonal binding assay (LanthaScreen) was outsourced to ThermoFisher Scientific's SelectScreen Services to determine IC50 values.
On the technique in general: In Kinase-Glo more light means more ATP remaining.

Data set [5] in a line: In vitro metabolism in mouse liver microsomes. To be noted: for half-life: mouse, microsomes. How it is done: as §1
Data set [6] concerns the target T2, JNK2 (Homo sapiens, UniProt P45984). Briefly: JNK2 kinase (intrinsic ATPase, Kinase-Glo) assay. Conditions: Table 3a; read-out: Kd JNK2. The class given is biochemical.
Data set [7] addresses T1, JNK1. Briefly: Promega NanoBRET intracellular target engagement (tracer K10 displacement), JNK1. The format is cell-based. Background: BRET reads energy transfer from a luciferase to a nearby fluorophore.
The target of data set [8] is T2, JNK2. Nature of the data set: Promega NanoBRET intracellular target engagement (tracer K10 displacement), JNK2. The format is cell-based.
Data set [9] has as its target T3, JNK3 (Homo sapiens, UniProt P53779). Briefly: JNK3 kinase (intrinsic ATPase, Kinase-Glo) assay. The format is biochemical. To be noted: Table 3a; read-out: Kd JNK3.
Data set [10] addresses T3, JNK3. Nature of the data set: Promega NanoBRET intracellular target engagement (tracer K10 displacement), JNK3. The format is cell-based.

T3 sequence (P53779 whole entry): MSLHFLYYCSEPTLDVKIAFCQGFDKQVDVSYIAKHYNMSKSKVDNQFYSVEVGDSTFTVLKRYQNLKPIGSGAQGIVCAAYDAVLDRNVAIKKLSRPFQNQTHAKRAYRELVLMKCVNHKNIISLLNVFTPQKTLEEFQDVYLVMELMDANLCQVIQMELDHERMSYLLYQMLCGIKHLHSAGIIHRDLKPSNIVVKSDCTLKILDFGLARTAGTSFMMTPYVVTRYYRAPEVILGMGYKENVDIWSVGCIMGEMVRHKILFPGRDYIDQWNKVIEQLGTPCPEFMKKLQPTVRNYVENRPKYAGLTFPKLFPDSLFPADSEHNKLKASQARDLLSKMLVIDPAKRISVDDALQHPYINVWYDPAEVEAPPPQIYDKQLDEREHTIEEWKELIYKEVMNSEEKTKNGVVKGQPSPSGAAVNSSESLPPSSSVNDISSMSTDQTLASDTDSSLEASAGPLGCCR
T2 sequence (P45984 whole entry): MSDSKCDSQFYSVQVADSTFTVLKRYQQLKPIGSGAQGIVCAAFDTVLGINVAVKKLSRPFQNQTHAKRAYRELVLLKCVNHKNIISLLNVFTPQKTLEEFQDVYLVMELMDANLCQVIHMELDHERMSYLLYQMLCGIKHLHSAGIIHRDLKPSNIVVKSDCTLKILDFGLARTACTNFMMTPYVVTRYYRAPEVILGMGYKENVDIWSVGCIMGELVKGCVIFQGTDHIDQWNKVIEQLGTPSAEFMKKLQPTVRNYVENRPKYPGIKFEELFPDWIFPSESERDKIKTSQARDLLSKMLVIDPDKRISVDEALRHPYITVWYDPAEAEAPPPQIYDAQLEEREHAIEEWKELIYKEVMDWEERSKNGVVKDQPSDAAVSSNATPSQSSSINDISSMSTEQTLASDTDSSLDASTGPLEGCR

Take `COc1ccc(NC(=O)c2cc3c(-c4cnc5[nH]ccc5c4)cccc3s2)cc1C(=O)N(C)C` [CDD-2628, N-(3-(dimethylcarbamoyl)-4-methoxyphenyl)-4-(1H-pyrrolo[2,3-b]pyridin-5-yl)benzo[b]thiophene-2-carboxamide]: the half-life is 1.64 h in [1] and 0.677 h in [5]. The solubility in [2] is 7.4 µM (≈ 3.48 µg/mL). For the same compound, the IL-6 expression entry in [3] is reported as “concentration-dependent decreases”. The IL-8 expression entry in [3] is reported as “improved potency; also recorded: more effective than bentamapimod”. In data set [3], the MMP-3 expression result is “improved potency; also recorded: more effective than bentamapimod”. Moreover, the PTGS2 expression entry in [3] is recorded as “concentration-dependent decreases”. For the same compound, the Kd in [4] came to 1.83 ± 0.26 nM; in [6] it was 1.6 ± 0.17 nM; in [9], 0.52 ± 0.05 nM. In addition, the values for the 50% inhibitory concentration (IC50) in data set [7], in data set [8] and in [10] were 500 nM, 520 nM and 566 nM, respectively.
In the case of `O=C(Nc1ccc(O)c(C(=O)N2CCCCC2)c1)c1cc2c(-c3cnc4[nH]ccc4c3)cccc2s1` [CDD-2634, N-(4-hydroxy-3-(piperidine-1-carbonyl)phenyl)-4-(1H-pyrrolo[2,3-b]pyridin-5-yl)benzo[b]thiophene-2-carboxamide], the half-life was determined as 1.36 h in [1] and 0.983 h in [5]. This compound displayed a solubility in data set [2] of 1.1 µM (≈ 0.546 µg/mL). In addition, the IL-8 expression result in data set [3] is “more potent inhibitors of IL-8 expression than bentamapimod”. The equilibrium dissociation constant (Kd) in [4] was found to be 0.29 ± 0.13 nM; in data set [6], 1.81 ± 0.19 nM; in [9] it was 2.62 ± 0.28 nM. The IC50 in [7] turned out to be 172 nM; in [8] it was 161 nM; in data set [10], 119 nM.
With `COc1ccc(NC(=O)c2cc3c(-c4cnc5[nH]ccc5c4)cccc3s2)cc1C(=O)N1CCOCC1` [CDD-2635, N-(4-methoxy-3-(morpholine-4-carbonyl)phenyl)-4-(1H-pyrrolo[2,3-b]pyridin-5-yl)benzo[b]thiophene-2-carboxamide], the half-life in data set [1] was determined as 1.24 h; in data set [5] it was 0.477 h. Besides, the solubility in [2] is 2.6 µM (≈ 1.33 µg/mL). Further, the Kd in data set [4] amounted to 0.16 ± 0.05 nM; in data set [6], 1.54 ± 0.13 nM; in data set [9], 0.76 ± 0.22 nM. Besides, the IC50 was determined as 186 nM in data set [7], 325 nM in [8] and 160 nM in data set [10].
As to `COc1ccc(NC(=O)c2cc3c(-c4cnc5[nH]ccc5c4)cccc3s2)cc1C(=O)N1CCN(C)CC1` [CDD-2636, N-(4-methoxy-3-(4-methylpiperazine-1-carbonyl)phenyl)-4-(1H-pyrrolo[2,3-b]pyridin-5-yl)benzo[b]thiophene-2-carboxamide], the half-life in data set [1] is 0.267 h; in data set [5] it was 0.272 h. The compound further registered a solubility in data set [2] of 4.9 µM (≈ 2.58 µg/mL). The Kd in data set [4] came out at 0.57 ± 0.1 nM; in data set [6] it was 1.93 ± 0.14 nM; in [9] it was 0.54 ± 0.09 nM. Besides, the IC50 in [7] amounted to 1200 nM; in [8], 820 nM; in data set [10], 1200 nM.
For `COc1ccc(NC(=O)c2cc3c(-c4cnc5[nH]cc(C)c5c4)cccc3s2)cc1C(=O)N(C)C` [CDD-2731, N-(3-(dimethylcarbamoyl)-4-methoxyphenyl)-4-(3-methyl-1H-pyrrolo[2,3-b]pyridin-5-yl)benzo[b]thiophene-2-carboxamide], the half-life is 1.92 h in data set [1] and 0.53 h in data set [5]. In addition, the solubility in data set [2] is 3.2 µM (≈ 1.55 µg/mL). For the same compound, the equilibrium dissociation constant (Kd) in [4] was 0.17 ± 0.05 nM; in data set [6], 1.28 ± 0.15 nM; in data set [9] it was 0.81 ± 0.05 nM. Moreover, the “metabolism in liver microsomes” value in [5] (liver microsomes, in words) is reported as “rapidly metabolized”. In addition, the values for the IC50 in data set [7], in data set [8] and in data set [10] were 156 nM, 156 nM and 124 nM, respectively.
On to `CN(C)C(=O)c1ccc(O)c(NC(=O)c2cc3c(-c4cnc5[nH]ccc5c4)cccc3s2)c1` [CDD-2938, N-(5-(dimethylcarbamoyl)-2-hydroxyphenyl)-4-(1H-pyrrolo[2,3-b]pyridin-5-yl)benzo[b]thiophene-2-carboxamide], for which the results for the half-life in data set [1] and in [5] were 0.405 h and 0.4 h, respectively. In addition, the solubility in data set [2] is 5.4 µM (≈ 2.47 µg/mL). Besides, the Kd in data set [4] was 4.6 ± 1.9 nM; in data set [6], 1.22 ± 0.27 nM; in [9], 1.41 ± 0.3 nM. Besides, the IC50 in [7] came to 11500 nM; in [8], 16100 nM; in [10], 15400 nM.
Consider `CN(C)C(=O)c1cc(NC(=O)c2cc3c(-c4cnc5[nH]ccc5c4)cccc3s2)ccn1` [CDD-3012, 4-(4-(1H-pyrrolo[2,3-b]pyridin-5-yl)benzo[b]thiophene-2-carboxamido)-N,N-dimethylpicolinamide], for which the half-life in data set [1] worked out at 9.13 h; in [5], 1.11 h. In [2], this compound showed a solubility of 2 µM (≈ 0.883 µg/mL). Besides, the values for the Kd in data set [4], in [6] and in data set [9] were 0.52 ± 0.12 nM, 4.84 ± 0.49 nM and 2.08 ± 0.18 nM, respectively. Also, the IC50 in data set [7] was found to be 3800 nM; in data set [8] it was 3600 nM; in data set [10] it was 6000 nM.
`O=C(Nc1ccc(O)c(C(=O)N2CCC2)c1)c1cc2c(-c3cnc4[nH]ccc4c3)cccc2s1` [CDD-3014, N-(3-(azetidine-1-carbonyl)-4-hydroxyphenyl)-4-(1H-pyrrolo[2,3-b]pyridin-5-yl)benzo[b]thiophene-2-carboxamide]: the half-life in data set [1] was 2.93 h; in [5], 1.02 h. Besides, in [2], the concentration in solution (solubility) was 0.4 µM (≈ 0.187 µg/mL). Further, the Kd came to 0.58 ± 0.08 nM in data set [4], 5.74 ± 0.5 nM in [6] and 2.92 ± 0.21 nM in [9]. For the same compound, the IC50 in data set [7] worked out at 789 nM; in [8], 738 nM; in data set [10], 960 nM.
As for `O=C(Nc1cncnc1)c1cc2c(-c3cnc4[nH]ccc4c3)cccc2s1` [CDD-3015, N-(pyrimidin-5-yl)-4-(1H-pyrrolo[2,3-b]pyridin-5-yl)benzo[b]thiophene-2-carboxamide], the results for the half-life in [1] and in data set [5] were 3.57 h and 0.773 h, respectively. Moreover, the concentration in solution in data set [2] (solubility) was 0.3 µM (≈ 0.111 µg/mL). Further, the Kd in data set [4] stood at 2.34 ± 0.3 nM; in data set [6], 6.84 ± 0.81 nM; in data set [9] it was 3.18 ± 0.14 nM. The IC50 in data set [7] was 3500 nM; in [8] it was 3200 nM; in data set [10], 8200 nM.
